Measured values from US9771343B2, “2-alkyl-or-aryl-substituted tanshinone derivatives, and preparation method and application thereof” (Hangzhou Bensheng Pharmaceutical Co., Ltd., priority 2011, dated 2017).
Converted amounts (≈) assume the structure as drawn.

Legend:
[1] = system: K562/adr (drug-resistant, chronic myeloid leukemia, CML); experiment: MTT cell growth inhibition, K562/adr leukemia cells, 72 h; type: cell-based; conditions: K562/ADR
Protocol: (§1) The standard sample of tanshinone I (TA) and the 2-alkyl- or 2-aromatic-substituted tanshinone I derivatives of the present invention are sufficiently dissolved in dimethylsulfoxide to produce a stock solution of 10 mg/mL, which is refrigerated at 4° C. and stored in dark, and is diluted with cell culture medium to a desired concentration prior to experimentation.
(§2) Obtaining 6000 well-growing leukemia cells and inoculating them into wells of a 96-well cell culture plate. The culture medium is the RPMI-1640 cell culture medium containing 10% fetal bovine serum. After adding on the second day the 2-alkyl- or 2-aromatic-substituted tanshinone I derivatives of different concentrations and mixing uniformly, placing the plate in a carbon dioxide cell incubator (5% CO2) at 37° C. and incubated for 72 hours. Then the viable cell concentration is determined by MTT method. In this experiment, the cell viability in control group (not treated with any compound) is set as 100%, and the cell viability (%) after treatment by the compounds and the half maximum inhibitory concentration for the leukemia cell at 72 hours (IC50 value of 72 hours, μg/mL) are calculated.

PC-3 (prostate cancer) = experiment: MTT cell growth inhibition, PC-3 cells, 72 h; type: cell-based, human; conditions: PC-3, 72 h
Protocol: as §1, with “with a” for “with”, “to the” for “to a”
(§3) Obtaining 6000 well-growing human solid tumor cells and inoculating them into wells of a 96-well cell culture plate. The culture medium is DMEM High Glucose cell culture medium containing 10% fetal bovine serum. The plate is placed in a carbon dioxide cell incubator (5% CO2) at 37° C. and incubated for 24 hours. After adding the 2-alkyl- or 2-aromatic-substituted tanshinone I derivatives of different concentrations and mixing uniformly, the plate is placed in a carbon dioxide cell incubator (5% CO2) at 37° C. and incubated for 72 hours. Then the viable cell concentration is determined by MTT method. In this experiment, the cell viability in control group (not treated with any compound) is set as 100%, and the cell viability (%) after treatment by the compounds and the half maximum inhibitory concentration for the leukemia cell at 72 hours (IC50 value of 72 hours, μg/mL) are calculated.

[2] = system: CNE (nasopharyngeal carcinoma cell); experiment: MTT cell growth inhibition, CNE cells, 72 h; type: cell-based, human; conditions: CNE, 72 h
Protocol: as §1, with “with a” for “with”, “to the” for “to a”
as §3

[3] = system: RKO (human colon adenocarcinoma cell); experiment: MTT cell growth inhibition, RKO cells, 72 h; type: cell-based; conditions: RKO, 72 h
Protocol: as §1, with “with a” for “with”, “to the” for “to a”
as §3

[4] = system: NB4 (acute promyelocytic leukemia, AML); experiment: MTT cell growth inhibition, NB4 leukemia cells, 72 h; type: cell-based; conditions: NB4, 72 h
Protocol: as §1, §2

[5] = system: CaES-17 (esophageal cancer cell); experiment: MTT cell growth inhibition, CaES-17 cells, 72 h; type: cell-based, human; conditions: CaEs-17, 72 h
Protocol: as §1, with “with a” for “with”, “to the” for “to a”
as §3

[6] = background statement; cited from earlier work
[7] = system: Jurkat (acute lymphoblastic leukemia, ALL); experiment: MTT cell growth inhibition, Jurkat leukemia cells, 72 h; type: cell-based; conditions: 72 h
Protocol: as §1, §2

[8] = system: H9 (acute lymphoblastic leukemia, ALL); experiment: MTT cell growth inhibition, H9 leukemia cells, 72 h; type: cell-based; conditions: H9, 72 h
Protocol: as §1, §2

[9] = system: Hep G2 (human liver cancer cell); experiment: MTT cell growth inhibition, Hep G2 cells, 72 h; type: cell-based; conditions: Hep G2, 72 h
Protocol: as §1, with “with a” for “with”, “to the” for “to a”
as §3

[10] = system: RPMI8226 (multiple myeloma); experiment: MTT cell growth inhibition, RPMI8226 multiple myeloma cells, 72 h; type: cell-based, human; conditions: RPMI 8226, 72 h
Protocol: as §1, §2

[11] = system: SK-OV-3 (ovarian cancer cell); experiment: MTT cell growth inhibition, SK-OV-3 cells, 72 h; type: cell-based, human; conditions: SK-OV-3, 72 h
Protocol: as §1, with “with a” for “with”, “to the” for “to a”
as §3

[12] = background statement; cited from earlier work; remark: listed apart in the source
[13] = system: MGC 803 (human gastric cancer cell); experiment: MTT cell growth inhibition, MGC 803 cells, 72 h; type: cell-based; conditions: MGC-803, 72 h
Protocol: as §1, with “with a” for “with”, “to the” for “to a”
as §3

[14] = system: Hela (human cervical cancer cell); experiment: MTT cell growth inhibition, Hela cells, 72 h; type: cell-based; conditions: Hela, 72 h
Protocol: as §1, with “with a” for “with”, “to the” for “to a”
as §3

tumor-bearing nude mice = conditions: literature report; cited from earlier work
Hep G2 cells = conditions: in vitro, literature report; cited from earlier work
A549 (human lung cancer) = experiment: MTT cell growth inhibition, A549 cells, 72 h; type: cell-based; conditions: A549, 72 h
Protocol: as §1, with “with a” for “with”, “to the” for “to a”
as §3

[15] = system: Hep-2 (laryngeal carcinoma); experiment: MTT cell growth inhibition, Hep-2 cells, 72 h; type: cell-based, human; conditions: Hep-2, 72 h
Protocol: as §1, with “with a” for “with”, “to the” for “to a”
as §3

[16] = system: Kasumi-1 (acute myeloid leukemia M2 type, AML-M2); experiment: MTT cell growth inhibition, Kasumi-1 leukemia cells, 72 h; type: cell-based; conditions: Kasumi-1, 72 h
Protocol: as §1, §2

MG63 (osteosarcoma) = experiment: MTT cell growth inhibition, MG63 cells, 72 h; type: cell-based, human; conditions: MG-63, 72 h
Protocol: as §1, with “with a” for “with”, “to the” for “to a”
as §3

[17] = system: SGC-7901 human gastric adenocarcinoma cells; conditions: concentration dependent within a certain range, literature report; cited from earlier work
[18] = system: PANC-1 (pancreatic cancer); experiment: MTT cell growth inhibition, PANC-1 cells, 72 h; type: cell-based, human; conditions: PANC-1, 72 h
Protocol: as §1, with “with a” for “with”, “to the” for “to a”
as §3

[19] = system: Becap37 (human breast cancer cell); experiment: MTT cell growth inhibition, Becap37 cells, 72 h; type: cell-based; conditions: Becap-37, 72 h
Protocol: as §1, with “with a” for “with”, “to the” for “to a”
as §3

[20] = system: U87 MG (malignant glioma cell); experiment: MTT cell growth inhibition, U87 MG cells, 72 h; type: cell-based, human; conditions: U87-MG, 72 h
Protocol: as §1, with “with a” for “with”, “to the” for “to a”
as §3

IC50 [1]: 0.88 µg/mL (≈ 3.19 µM)
IC90 [1]: 4.17 µg/mL (≈ 15.1 µM)
IC50 (PC-3 (prostate cancer)): 6.63 µg/mL (≈ 24 µM)
IC90 (PC-3 (prostate cancer)): 10.57 µg/mL (≈ 38.3 µM)
IC50 [2]: 7.4 µg/mL (≈ 26.8 µM)
IC90 [2]: >16 µg/mL
IC50 [3]: 1.83 µg/mL (≈ 6.62 µM)
IC90 [3]: >16 µg/mL
IC50 [4]: 0.98 µg/mL (≈ 3.55 µM)
IC90 [4]: 2.5 µg/mL (≈ 9.05 µM)
IC50 [5]: 3.18 µg/mL (≈ 11.5 µM)
IC90 [5]: 16.00 µg/mL (≈ 57.9 µM)
IC50 [7]: 1.74 µg/mL (≈ 6.3 µM)
IC90 [7]: 8.42 µg/mL (≈ 30.5 µM)
IC50 [8]: 3.5 µg/mL (≈ 12.7 µM)
IC90 [8]: 13.06 µg/mL (≈ 47.3 µM)
IC50 [9]: 2.19 µg/mL (≈ 7.93 µM)
IC90 [9]: 22.13 µg/mL (≈ 80.1 µM)
IC50 [10]: 0.96 µg/mL (≈ 3.47 µM)
IC90 [10]: 10.86 µg/mL (≈ 39.3 µM)
IC50 [11]: >16 µg/mL
IC90 [11]: >16 µg/mL
IC50 [13]: 1.62 µg/mL (≈ 5.86 µM)
IC90 [13]: 9.26 µg/mL (≈ 33.5 µM)
IC50 [14]: 4 µg/mL (≈ 14.5 µM)
IC90 [14]: >16 µg/mL
IC50 (A549 (human lung cancer)): 4.03 µg/mL (≈ 14.6 µM)
IC90 (A549 (human lung cancer)): 17.29 µg/mL (≈ 62.6 µM)
IC50 [15]: 3.15 µg/mL (≈ 11.4 µM)
IC90 [15]: >16 µg/mL
IC50 [16]: 0.99 µg/mL (≈ 3.58 µM)
IC90 [16]: 3.62 µg/mL (≈ 13.1 µM)
IC50 (MG63 (osteosarcoma)): 0.96 µg/mL (≈ 3.47 µM)
IC90 (MG63 (osteosarcoma)): >16 µg/mL
IC50 [18]: 2.7 µg/mL (≈ 9.77 µM)
IC90 [18]: >16 µg/mL
IC50 [19]: 3.03 µg/mL (≈ 11 µM)
IC90 [19]: >16 µg/mL
IC50 [20]: 6.36 µg/mL (≈ 23 µM)
IC90 [20]: 14.63 µg/mL (≈ 53 µM)
Structure (SMILES): Cc1coc2c1C(=O)C(=O)c1c-2ccc2c(C)cccc12 [TA, 1,6-dimethyl-phenanthreno [1,2-b]furan-10,11-diketone, reference compound]
in vivo bioavailability [6]: low in vivo bioavailability
solubility in water [12]: poor solubility in water
effect on tumor growth in tumor-bearing nude mice (tumor-bearing nude mice): can inhibit the tumor growth in the mice
effect on proliferation of Hep G2 cells (Hep G2 cells): can inhibit the proliferation of Hep G2 cells
effect on growth of SGC-7901 cells cultured in vitro [17]: significant inhibitory effect
